Test system: MCF-7 breast cancer cells
Test: Microarray gene expression analysis (Agilent whole human genome 4 x 44K; compound vs DMSO, LIMMA log2 fold change)
Type: cell-based
Settings: cell cycle genes

Compound: Cn1ncc2c(N3CCOCC3)nc(-c3cccc(O)c3)nc21 [ETP-45658]
- CDC25B log2FC (Gene 994): -0.243
- CDC25C log2FC (Gene 995): 1.417
- CDC34 log2FC (Gene 997): 0.349
- CDC42 log2FC (Gene 998): 0.143
- CDK2 log2FC (Gene 1017): -0.519
- CDK3 log2FC (Gene 1018): -0.108
- CDK4 log2FC (Gene 1019): 0.113
- CDK5 log2FC (Gene 1020): -0.089
- CDK7 log2FC (Gene 1022): 0.920
- CDKN1A log2FC (Gene 1026): -1.401
- CDKN1B log2FC (Gene 1027): 1.129
- CDKN1C log2FC (Gene 1028): 0.689
- CDKN2A log2FC (Gene 1029): 0.240
- CDKN2D log2FC (Gene 1032): 0.891
- CDKN3 log2FC (Gene 1033): 0.104
- CENPA log2FC (Gene 1058): 0.094
- CENPE log2FC (Gene 1062): 1.101
- CENPF log2FC (Gene 1063): 1.562
- CETN2 log2FC (Gene 1069): 0.059
- CHD3 log2FC (Gene 1107): -0.048
- CHEK1 log2FC (Gene 1111): 0.461
- CKS1B log2FC (Gene 1163): 0.101
- CKS2 log2FC (Gene 1164): -0.752
- CLTC log2FC (Gene 1213): 0.237
- PLK3 log2FC (Gene 1263): -1.808
- ATF2 log2FC (Gene 1386): 0.857
- CREBL2 log2FC (Gene 1389): 0.823
- MAPK14 log2FC (Gene 1432): -0.291
- CSNK1A1 log2FC (Gene 1452): 0.166
- CSNK1D log2FC (Gene 1453): -0.308
- CSNK1E log2FC (Gene 1454): -0.533
- CSNK2A1 log2FC (Gene 1457): -0.545
- CTBP1 log2FC (Gene 1487): -0.371
- CTGF log2FC (Gene 1490): -0.597
- CYLD log2FC (Gene 1540): 0.499
- CYP27B1 log2FC (Gene 1594): -0.054
- DAPK3 log2FC (Gene 1613): -0.132
- DDB1 log2FC (Gene 1642): 0.227
- DDIT3 log2FC (Gene 1649): 2.364
- DDX3X log2FC (Gene 1654): -1.156
- DHCR24 log2FC (Gene 1718): -0.643
- DHFR log2FC (Gene 1719): 0.876
- DLG1 log2FC (Gene 1739): 0.053
- DMRT1 log2FC (Gene 1761): 0.148
- DYNC1I2 log2FC (Gene 1781): 0.828
- DNM2 log2FC (Gene 1785): -0.047
- DRD3 log2FC (Gene 1814): -0.082
- DUSP1 log2FC (Gene 1843): -0.931
- DUSP3 log2FC (Gene 1845): 0.560
- DYRK1A log2FC (Gene 1859): 0.448
- E2F1 log2FC (Gene 1869): -0.356
- E2F2 log2FC (Gene 1870): -0.581
- E2F3 log2FC (Gene 1871): -0.373
- E2F4 log2FC (Gene 1874): -0.621
- E2F5 log2FC (Gene 1875): 0.382
- E2F6 log2FC (Gene 1876): -0.321
- E4F1 log2FC (Gene 1877): 0.414
- ECT2 log2FC (Gene 1894): 1.058
- EDN3 log2FC (Gene 1908): -0.056
- EGF log2FC (Gene 1950): -0.024
- EGFR log2FC (Gene 1956): 0.311
- EIF4EBP1 log2FC (Gene 1978): -0.081
- EIF4G2 log2FC (Gene 1982): 0.237
- EMD log2FC (Gene 2010): -0.178
- ENSA log2FC (Gene 2029): -0.068
- EPS8 log2FC (Gene 2059): 0.516
- ERCC2 log2FC (Gene 2068): -0.566
- ERCC3 log2FC (Gene 2071): -0.084
- ERCC4 log2FC (Gene 2072): 0.186
- ERF log2FC (Gene 2077): 0.135
- ERH log2FC (Gene 2079): -0.238
- ERN1 log2FC (Gene 2081): -0.168
- ETS1 log2FC (Gene 2113): -0.590
- EZH2 log2FC (Gene 2146): 0.722
- FANCG log2FC (Gene 2189): -0.077
- FEN1 log2FC (Gene 2237): -0.980
- FER log2FC (Gene 2241): 0.332
- FGF2 log2FC (Gene 2247): 0.202
- FGF8 log2FC (Gene 2253): -0.131
- FGF10 log2FC (Gene 2255): 0.033
- FGFR1 log2FC (Gene 2260): -0.387
- FGFR3 log2FC (Gene 2261): -0.382
- FGFR2 log2FC (Gene 2263): 1.543
- FHL1 log2FC (Gene 2273): 0.046
- FOXC1 log2FC (Gene 2296): -0.876
- FOXM1 log2FC (Gene 2305): -0.360
- FLNA log2FC (Gene 2316): -0.229
- FNTB log2FC (Gene 2342): -0.574
- GAS1 log2FC (Gene 2619): 0.711
- GAS2 log2FC (Gene 2620): 0.183
- GAS6 log2FC (Gene 2621): -0.052
- GFI1 log2FC (Gene 2672): 0.062
- GNAI1 log2FC (Gene 2770): 1.186
- GNAI2 log2FC (Gene 2771): -0.343
- GNAI3 log2FC (Gene 2773): 0.669
- SFN log2FC (Gene 2810): -1.182
- GPR3 log2FC (Gene 2827): -0.277
- GPS1 log2FC (Gene 2873): -0.145
- GPS2 log2FC (Gene 2874): -0.087
- GSK3B log2FC (Gene 2932): -0.607
- GSPT1 log2FC (Gene 2935): -0.172
- MSH6 log2FC (Gene 2956): 0.235
- GTF2H1 log2FC (Gene 2965): 0.573
- H2AFX log2FC (Gene 3014): -1.128
- HCFC1 log2FC (Gene 3054): -0.769
- HDAC1 log2FC (Gene 3065): -0.487
- HDAC2 log2FC (Gene 3066): 0.164
- HGF log2FC (Gene 3082): -0.369
- HHEX log2FC (Gene 3087): -0.222
- FOXA1 log2FC (Gene 3169): 0.031
- HOXA13 log2FC (Gene 3209): 0.081
- HRAS log2FC (Gene 3265): -0.664
- PRMT2 log2FC (Gene 3275): 0.361
- HES1 log2FC (Gene 3280): -1.195
- HSF1 log2FC (Gene 3297): 0.106
- HSPA2 log2FC (Gene 3306): -1.351
- HSP90AA1 log2FC (Gene 3320): 1.066
- ID2 log2FC (Gene 3398): 1.025
- ID3 log2FC (Gene 3399): -0.237
- IFNG log2FC (Gene 3458): -0.055
- IGF1 log2FC (Gene 3479): 0.046
- IGF1R log2FC (Gene 3480): 0.075
- IGF2 log2FC (Gene 3481): 0.014
- IL1A log2FC (Gene 3552): -0.044
- IL1B log2FC (Gene 3553): -0.057
- IL8 log2FC (Gene 3576): -1.203
- IL12B log2FC (Gene 3593): -0.025
- ILF3 log2FC (Gene 3609): -0.460
- ILK log2FC (Gene 3611): -0.066
- INCENP log2FC (Gene 3619): -0.174
- ING2 log2FC (Gene 3622): 0.424
- INHA log2FC (Gene 3623): -0.101
- INSM1 log2FC (Gene 3642): -0.209
- INSR log2FC (Gene 3643): 0.664
- IRF6 log2FC (Gene 3664): 0.370
- ITGB1 log2FC (Gene 3688): 0.722
- JUN log2FC (Gene 3725): -0.912
- JUNB log2FC (Gene 3726): -0.596
- KIF11 log2FC (Gene 3832): 0.922
- KRT18 log2FC (Gene 3875): -0.481
- STMN1 log2FC (Gene 3925): 0.176
- LIF log2FC (Gene 3976): -1.818
- LIG1 log2FC (Gene 3978): -0.097
- LIG3 log2FC (Gene 3980): -0.509
- LLGL2 log2FC (Gene 3993): -0.345
- LRP5 log2FC (Gene 4041): -0.510
- MAD2L1 log2FC (Gene 4085): 0.081
- SMAD3 log2FC (Gene 4088): 0.254
- MCM3 log2FC (Gene 4172): -0.047
- MCM5 log2FC (Gene 4174): -0.158
- MCM7 log2FC (Gene 4176): 0.104
- MDM2 log2FC (Gene 4193): -0.059
- MDM4 log2FC (Gene 4194): 0.064
- RAB8A log2FC (Gene 4218): -0.531
- MIF log2FC (Gene 4282): 0.242
- MKI67 log2FC (Gene 4288): 0.040
